In patent US20240099991A1, “HOST DIRECTED DRUG COMBINATIONS FOR TREATMENT OF VIRAL INFECTIONS” (priority 2021, published 2024):
Read-outs that look alike come from different tables or passages of the source.

Assays:
SARS-CoV-2 [1] = assay: In vivo efficacy against SARS-CoV-2 in Syrian Golden Hamster Model (lung viral load); details: oral, once daily for 3 days (1-3 DPI), Atovaquone 200 mg/kg, Cepharantine 8 mg/kg, combination 200 + 8 mg/kg
Excerpt: In vivo efficacy evaluation of Atovaquone and Cepharanthine alone and in combination against SARS-CoV-2 in Syrian Golden Hamster Model [Study Protocol Reference:) Syrian hamsters as a small animal model for SARS-CoV-2 infection and countermeasure development. Masaki Imai et al., PNAS 2020, 117(28)16587-16595]
Data Analysis One way ANOVA-Dunnett's multiple comparison test

SARS-CoV-2 [2] = type: cell-based
Vero E6 cells [3] = assay: Cytotoxicity of test agents in the Vero E6 checkerboard assay; details: Experiment 2, highest concentration tested
Vero E6 cells [4] = test system: Vero E6 cells

For `COc1ccc2cc1Oc1ccc(cc1)C[C@H]1c3c(cc4c(c3Oc3cc5c(cc3OC)CCN(C)[C@@H]5C2)OCO4)CCN1C` [Cepharanthine, cepharantine], the “Mean Difference (Log10PFU/lung), Infection Control vs. group” value (“Mean Difference (Log10PFU/lung)” below) (SARS-CoV-2 [1]) was 0.42 Log10PFU/lung, the antiviral efficacy (SARS-CoV-2 [2]; 0.04-0.12 micromole, alone) was “inactive” and the “inhibition of virus induced cytopathic effects (CPE)” value (“inhibition” for short) (SARS-CoV-2 [2]; Cepharanthine 0.04 micromol alone (Atovaquone 0.00)) was 7.14%. For the same compound, the “inhibition” value (SARS-CoV-2 [2]; Cepharanthine 0.12 micromol alone (Atovaquone 0.00)) was 9.52%, the “inhibition” value (SARS-CoV-2 [2]; Cepharanthine 0.37 micromol alone (Atovaquone 0.00)) was 14.29% and the “inhibition” value (SARS-CoV-2 [2]; Cepharanthine 1.10 micromol alone (Atovaquone 0.00)) was 38.10%. The cytotoxicity (Vero E6 cells [3]) was “neither cepharantine nor atovaquone are cytotoxic”.

`O=C1C(O)=C([C@H]2CC[C@H](c3ccc(Cl)cc3)CC2)C(=O)c2ccccc21` [Atovaquone, atovaquone] was tested, and the “Mean Difference (Log10PFU/lung)” value (SARS-CoV-2 [1]) was 0.74 Log10PFU/lung, the antiviral efficacy (SARS-CoV-2 [2]; 0.12-0.37, alone) was “inactive” and the “inhibition” value (SARS-CoV-2 [2]; Experiment 1, Atovaquone 0.12 micromol alone (Niclosamide 0.00)) was 2.38%. For the same compound, the “inhibition” value (SARS-CoV-2 [2]; Experiment 1, Atovaquone 0.37 micromol alone (Niclosamide 0.00)) was 9.52%, the “inhibition” value (SARS-CoV-2 [2]; Experiment 1, Atovaquone 1.10 micromol alone (Niclosamide 0.00)) was 16.67% and the “inhibition” value (SARS-CoV-2 [2]; Experiment 1, Atovaquone 3.30 micromol alone (Niclosamide 0.00)) was 50.00%. For the same compound, the “inhibition” value (SARS-CoV-2 [2]; Experiment 2, Atovaquone 0.12 micromol alone (Cepharanthine 0.00)) was 2.38%, the “inhibition” value (SARS-CoV-2 [2]; Experiment 2, Atovaquone 0.37 micromol alone (Cepharanthine 0.00)) was 9.52% and the “inhibition” value (SARS-CoV-2 [2]; Experiment 2, Atovaquone 1.10 micromol alone (Cepharanthine 0.00)) was 16.67%. The “inhibition” value (SARS-CoV-2 [2]; Experiment 2, Atovaquone 3.30 micromol alone (Cepharanthine 0.00)) was 50.00% and the “inhibits virus induced cytopathic effects (CPE)” value (SARS-CoV-2 [2]; concentration of 3.3 micro mol) was 50%.

`O=C(Nc1ccc([N+](=O)[O-])cc1Cl)c1cc(Cl)ccc1O` [Niclosamide, niclosamide] was tested, and the antiviral efficacy (SARS-CoV-2 [2]; 0.12 to 0.37 micromolar, without the addition of atovaquone) was “inactive”, the “inhibition” value (SARS-CoV-2 [2]; Niclosamide 0.12 micromol alone (Atovaquone 0.00)) was 11.90% and the “inhibition” value (SARS-CoV-2 [2]; Niclosamide 0.37 micromol alone (Atovaquone 0.00)) was 9.52%. The “inhibition” value (SARS-CoV-2 [2]; Niclosamide 1.10 micromol alone (Atovaquone 0.00)) was 16.67%, the antiviral efficacy (SARS-CoV-2 [2]; concentrations ranging from 0.12 to 1,1 micro mol) was “non-efficacious” and the cytotoxicity (Vero E6 cells [4]) was “non cytotoxic”.

With `CCC(CC)COC(=O)[C@H](C)N[P@](=O)(OC[C@H]1O[C@@](C#N)(c2ccc3c(N)ncnn23)[C@H](O)[C@@H]1O)Oc1ccccc1` [Remdesivir] the “Mean Difference (Log10PFU/lung)” value (SARS-CoV-2 [1]) was 0.97 Log10PFU/lung.
